Assay results reported in patent US9926293B2, “Multivalent RAS binding compounds” (THE TRUSTEES OF COLUMBIA UNIVERSITY IN THE CITY OF NEW YORK, priority 2014, dated 2018).

What was measured:
KRAS^G12D D38A = molecular target: T1, KRAS^G12D D38A (Homo sapiens, UniProt P01116, D38A/G12D); assay: Microscale thermophoresis on binding-site mutant KRAS^G12D D38A; conditions: for Kd: MST
T1 construct: His6 (N); made in house
Description: (§1) Mutagenesis of the KRAS^G12D plasmid was performed using a QuikChange XL site-directed mutagenesis kit from Agilent technologies, according to the manufacturer's protocol. Primers were designed using the Agilent QuikChange Primer Design application and purchased from Integrated DNA Technologies. KRAS^G12D D38A forward primer 5′ ATATGATCCAACAATAGAGGCTTCCTACAGGAAGCAAGTAG 3′ (SEQ ID NO: 66), KRAS^G12D D38A reverse primer 5′ CTACTTGCTTCCTGTAGGAAGCCTCTATTGTTGGATCATAT 3′ (SEQ ID NO: 67), KRAS^G12D I36N forward primer 5′ CATTTTGTGGACGAATATGATCCAACAAATGAGGATTCCTACAGG 3′ (SEQ ID NO: 68), KRAS^G12D I36N reverse primer 5′ CCTGTAGGAATCCTCATTTGTTGGATCATATTCGTCCACAAAATG 3′ (SEQ ID NO: 69). DNA sequencing was performed to confirm the correct amino acid sequence of the construct (GeneWiz, Inc.).
(§2) KRAS^G12D (250 μM) in 25 mM HEPES, 100 mM sodium chloride, 2 mM TCEP with 20 mM EDTA and 1 mM GppNHp was shaken at 220 rpm at 30° C. to remove the endogenous nucleotide, The solution was placed on ice for 2 minutes prior to the addition of 65 mM MgCl2. After an additional 10 minutes incubation on ice, 200 uL of a 10 uM solution of KRAS^G12D was combined with 200 uL of a 20 uM solution of NT-647-NHS-ester dye (from a 652.4 μM stock). The protein/dye mixture was rotated at 4° C. for 30 minutes, before being separated from the excess dye and buffer exchanged into 25 mM Tris, 100 mM sodium chloride, 2 mM TCEP, and 5 mM MgCl2 via a nap-5 column. The test compounds were arrayed across a 16-point dilution series consisting of 1.5% DMSO with 25 mM Tris, 100 mM NaCl, 2 mM TCEP, 5 mM MgCl2 and 0.05% tween-20. Thermophoretic movement of the fluorescently labeled protein with the inhibitors was performed using a Monolith NT.115 (Nanotemper Technologies). RALA and RHOA were purchased commercially from Abcam (RALA CN:ab102555, RHOA CN:ab101594).
A set of 45 of the closest matches (ranging from 0.85-0.97 Tanimoto coefficient) were synthesized (based on Scheme 2 with appropriate modifications) and tested for their ability to bind to KRAS^G12D by differential scanning fluorimetry.

KRAS^G12D I36N = molecular target: T2, KRAS^G12D I36N (Homo sapiens, UniProt P01116, G12D/I36N); assay: Microscale thermophoresis on binding-site mutant KRAS^G12D I36N; conditions: MST
T2 construct: His6 (N); made in house
T2 sequence (P01116 1-169 isoform P01116-2 G12D/I36N): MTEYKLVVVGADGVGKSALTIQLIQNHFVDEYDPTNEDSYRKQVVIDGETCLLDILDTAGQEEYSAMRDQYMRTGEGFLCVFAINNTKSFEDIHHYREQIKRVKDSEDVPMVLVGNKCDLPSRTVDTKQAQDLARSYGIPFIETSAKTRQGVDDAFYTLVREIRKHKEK
Description: as §1
as §2, with “CN:ab101594). […]” for “CN:ab101594).”

SW480 (KRAS^G12V) = assay: Multicellular tumor spheroids in low adherence plates; format: cell-based; conditions: 72 hours
Description: Multicellular Tumor Spheroids
Multicellular tumor spheroids (MCTSs) were grown in 96-well Corningware Ultra Low Attachment (ULA) Plates (CLS 3474). 100 μL of cell suspension containing 2×10^4 cells/ml were added to each well of the ULA plate containing 100 μL of a 2× solution of the desired concentration of compounds. Cells were incubated at 37° C., 5% CO2 for 72 hours to allow for MCTS formation. After 72 hours, 50 μL of a 50% solution of Alamar blue and medium was added and incubated for 12 hours prior to measurements on a Victor3 plate reader as previously described.

[1] = system: active GTP-bound RALA in BJeLR cells; assay: RALA activation assay using RALBP1; format: cell-based; conditions: 2% FBS
Description: (§3) BJeLR cells were seeded 16 hours prior to use in 2% FBS in DMEM. […] After 6 hours cells were washed twice with ice cold buffer (25 mM tris, 100 mM NaCl, 1 mM TCEP, 5 mM MgCl2, 0.1% tween-20 and 1 protease inhibitor/25 mL). Cells were scrapped, pelleted at 13,000 rpm for 10 minutes at 4° C., then passed through a 26 gauge needle several times. The solution was spun down a second time at 13,000 rpm for 15 minutes at 4° C., to remove unlysed cells and debris. RALBP1 agarose beads (EMD Millipore) were then added to the lysate and the solution was rotated at 4° C. for 2 hours. The solutions were spun down at 1500×g for 2 minutes and the supernatant was removed by syringe. The beads were washed twice by this process with buffer, then resuspended in 2.5×SDS.

[2] = system: RAS-RAF and RAS-PI3K interaction in BJeLR cells; assay: Immunoprecipitation with HRAS antibody, blot for cRAF and PI3Kgamma; format: cell-based; conditions: 10% FBS
Description: as §3, with “use in 10% FBS in” for “use in 2% FBS in”, “and debris. HRAS antibody (Santa cruz, SC-520) was then added” for “and debris. RALBP1 agarose beads (EMD Millipore) were then added”, “the lysate (1:100) and the solution was rocked at 4° C. for 16 hours. Protein A agrose beads were then added and the” for “the lysate and the”, “C. for an additional 6 hours. The” for “C. for 2 hours. The”

[3] = system: primary T-ALL cells with wild-type NRAS; assay: Viability of patient-derived T-ALL samples cultured in vitro, wild-type NRAS; format: cell-based, human; conditions: four samples, 5 μM, 72 hours
Description: Primary Cell Co-Culture and In Vitro Cell Viability Assays.
Cells were harvested 72 hours after treatment and analyzed cell viability using the BD cell viability kit with liquid counting beads (BD Bioscience) gating out stroma cells (GFP+), dead cells and particles (PI+). We acquired data using a FACSCanto II flowcytometer (BD Bioscience) and analyzed it using FlowJo software (Tree Star, Inc.). Viability data is represented as % relative to vehicle treatment.

T1 sequence (P01116 1-169 isoform P01116-2 G12D/D38A): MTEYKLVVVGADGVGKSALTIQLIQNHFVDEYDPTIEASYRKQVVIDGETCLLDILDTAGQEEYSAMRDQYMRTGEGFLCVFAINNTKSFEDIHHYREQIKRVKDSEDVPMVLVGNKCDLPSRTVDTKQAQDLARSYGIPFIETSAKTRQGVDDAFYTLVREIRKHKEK

NC1(C(=O)NCCCn2cc(-c3ccc(OC(F)(F)F)cc3)c3cc(CN4CCN(Cc5c(Cl)cccc5Cl)CC4)ccc32)CCNCC1 [Compound 31MEW44, 4-amino-N-(3-(5-((4-(2,6-dichlorobenzyl)piperazin-1-yl)methyl)-3-(4-(trifluoromethoxy)phenyl)-1H-indol-1-yl)propyl)piperidine-4-carboxamide]
loss in binding affinity (KRAS^G12D D38A; I36N and D38A mutants vs KRAS^G12D): 3.5 to 21 fold
Kd (KRAS^G12D D38A; 31MEW44, FIG. 14H): 33 µM
Kd (KRAS^G12D D38A; 31MEW44, first experiment): 1.9 µM
loss in binding affinity (KRAS^G12D D38A; binding-site mutants D38A and I36N): 5-10 fold
Kd (KRAS^G12D I36N; 31MEW44, FIG. 14H): 200 µM
Kd (KRAS^G12D I36N; 31MEW44, first experiment): 1.1 µM
size of multicellular tumor spheroids (SW480 (KRAS^G12V)): decreased in size in a dose-dependent manner
active GTP-bound RALA [1]: decreased levels of active GTP-bound RALA
co-immunoprecipitated cRAF and PI3K [2]: decreased levels of co-immunoprecipitated cRAF and PI3K
viability [3]: no observed decrease in viability
